Data as given in US7935702B2, “Substituted biaryl quinolin-4-ylamine analogues” (Neurogen Corporation, priority 2004, dated 2011).

What follows are molecules tested against T1, human capsaicin receptor (Homo sapiens, UniProt Q8NER1) (assay: Calcium mobilization assay, determination of antagonist activity (Example 6)). Details: Table I; IC50 determined as described in Example 6; read-out: IC50.
T1 construct: expressed in transfected cells
T1 sequence (Q8NER1 whole entry): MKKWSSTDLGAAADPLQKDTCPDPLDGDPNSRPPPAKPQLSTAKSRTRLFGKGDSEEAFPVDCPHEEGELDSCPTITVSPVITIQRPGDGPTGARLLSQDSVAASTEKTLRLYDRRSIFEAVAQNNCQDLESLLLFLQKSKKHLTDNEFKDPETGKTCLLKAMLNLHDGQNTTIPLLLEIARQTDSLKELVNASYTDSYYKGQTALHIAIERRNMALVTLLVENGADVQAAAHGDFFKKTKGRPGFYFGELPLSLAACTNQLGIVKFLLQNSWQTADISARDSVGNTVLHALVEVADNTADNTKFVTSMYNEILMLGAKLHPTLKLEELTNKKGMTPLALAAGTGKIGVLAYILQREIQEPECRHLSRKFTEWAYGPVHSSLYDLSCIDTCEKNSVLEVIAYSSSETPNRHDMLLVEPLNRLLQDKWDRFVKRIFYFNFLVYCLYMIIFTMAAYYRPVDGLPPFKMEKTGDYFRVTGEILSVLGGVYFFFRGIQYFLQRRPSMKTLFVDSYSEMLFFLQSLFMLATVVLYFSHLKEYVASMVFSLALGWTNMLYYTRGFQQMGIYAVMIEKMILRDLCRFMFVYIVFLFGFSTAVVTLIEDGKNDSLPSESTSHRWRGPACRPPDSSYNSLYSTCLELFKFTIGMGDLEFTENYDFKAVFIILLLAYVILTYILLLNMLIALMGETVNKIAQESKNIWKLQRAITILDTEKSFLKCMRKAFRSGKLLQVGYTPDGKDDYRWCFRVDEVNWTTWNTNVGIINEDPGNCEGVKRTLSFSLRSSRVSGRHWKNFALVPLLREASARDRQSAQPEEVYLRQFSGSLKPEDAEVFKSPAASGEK
Assay type: cell-based
Description: A cDNA encoding full length human capsaicin receptor (SEQ ID NO:1, 2 or 3 of U.S. Pat. No. 6,482,611) is subcloned in the plasmid pBK-CMV (Stratagene, La Jolla, Calif.) for recombinant expression in mammalian cells.
Human embryonic kidney (HEK293) cells are transfected with the pBK-CMV expression construct encoding the full length human capsaicin receptor using standard methods. The transfected cells are selected for two weeks in media containing G418 (400 μg/ml) to obtain a pool of stably transfected cells. Independent clones are isolated from this pool by limiting dilution to obtain clonal stable cell lines for use in subsequent experiments.
This Example illustrates representative calcium mobilization assays for use in evaluating test compounds for agonist and antagonist activity.
Cells transfected with expression plasmids (as described in Example 4) and thereby expressing human capsaicin receptor are seeded and grown to 70-90% confluency in FALCON black-walled, clear-bottomed 96-well plates (#3904, BECTON-DICKINSON, Franklin Lakes, N.J.). The culture medium is emptied from the 96 well plates and FLUO-3 AM calcium sensitive dye (Molecular Probes, Eugene, Oreg.) is added to each well (dye solution: 1 mg FLUO-3 AM, 440 μL DMSO and 440 μl 20% pluronic acid in DMSO, diluted 1:250 in Krebs-Ringer HEPES (KRH) buffer (25 mM HEPES, 5 mM KCl, 0.96 mM NaH2PO4, 1 mM MgSO4, 2 mM CaCl2, 5 mM glucose, 1 mM probenecid, pH 7.4), 50 μl diluted solution per well). Plates are covered with aluminum foil and incubated at 37° C. for 1-2 hours in an environment containing 5% CO2. After the incubation, the dye is emptied from the plates, and the cells are washed once with KRH buffer, and resuspended in KRH buffer.
To measure the ability of a test compound to agonize or antagonize a calcium mobilization response in cells expressing capsaicin receptors to capsaicin or other vanilloid agonist, the EC50 of the agonist capsaicin is first determined. An additional 20 μl of KRH buffer and 1 μl DMSO is added to each well of cells, prepared as described above. 100 μl capsaicin in KRH buffer is automatically transferred by the FLIPR instrument to each well. Capsaicin-induced calcium mobilization is monitored using either FLUOROSKAN ASCENT (Labsystems; Franklin, Mass.) or FLIPR (fluorometric imaging plate reader system; Molecular Devices, Sunnyvale, Calif.) instruments. Data obtained between 30 and 60 seconds after agonist application are used to generate an 8-point concentration response curve, with final capsaicin concentrations of 1 nM to 3 μM. KALEIDAGRAPH software (Synergy Software, Reading, Pa.) is used to fit the data to the equation: y=a*(1/(1+(b/x)^c)) to determine the 50% excitatory concentration (EC50) for the response. In this equation, y is the maximum fluorescence signal, x is the concentration of the agonist or antagonist (in this case, capsaicin), a is the Emax, b corresponds to the EC50 value and c is the Hill coefficient. Determination of Agonist Activity
Test compounds are dissolved in DMSO, diluted in 20 μl KRH buffer so that the final concentration of test compounds in the assay well is between 1 μM and 5 μM, and added to cells prepared as described above. The 96 well plates containing prepared cells and test compounds are incubated in the dark, at room temperature for 0.5 to 6 hours. It is important that the incubation not continue beyond 6 hours. Just prior to determining the fluorescence response, 100 μl capsaicin in KRH buffer at twice the EC50 concentration determined as described above is automatically added by the FLIPR instrument to each well of the 96 well plate for a final sample volume of 200 μl and a final capsaicin concentration equal to the EC50. The final concentration of test compounds in the assay wells is between 1 μM and 5 μM. […]
For `NC(=O)c1cnc(-c2cnc3c(Nc4cnc(C(F)(F)F)cn4)ccnc3n2)c(C(F)(F)F)c1` [compound 34, 5-(trifluoromethyl)-6-(8-{[5-(trifluoromethyl)pyrazin-2-yl]amino}pyrido[2,3-b]pyrazin-3-yl)nicotinamide], the IC50 was under 1000 nM. `NC(=O)c1cnc(-c2cnc3c(Nc4cnc5ccccc5n4)ccnc3n2)c(C(F)(F)F)c1` [compound 35, 6-[8-(quinoxalin-2-ylamino)pyrido[2,3-b]pyrazin-3-yl]-5-(trifluoromethyl)nicotinamide] was tested, and the IC50 was under 1000 nM. `N#Cc1ccc(-c2cnc3c(Nc4ccc(C(F)(F)F)cn4)ccnc3n2)c(C(F)(F)F)c1` [compound 36, 3-(trifluoromethyl)-4-(8-{[5-(trifluoromethyl)pyridin-2-yl]amino}pyrido[2,3-b]pyrazin-3-yl)benzonitrile] showed an IC50 of under 1000 nM. Molecule `NC(=O)c1ccc(-c2cnc3c(Nc4ccc(C(F)(F)F)cn4)ccnc3n2)c(C(F)(F)F)c1` [compound 37, 3-(trifluoromethyl)-4-(8-{[5-(trifluoromethyl)pyridin-2-yl]amino}pyrido[2,3-b]pyrazin-3-yl)benzamide] has an IC50 of under 1000 nM. With `O=C(O)c1ccc(-c2cnc3c(Nc4ccc(C(F)(F)F)cn4)ccnc3n2)c(C(F)(F)F)c1` [compound 38, 3-(trifluoromethyl)-4-(8-{[5-(trifluoromethyl)pyridin-2-yl]amino}pyrido[2,3-b]pyrazin-3-yl)benzoic acid] the IC50 was under 1000 nM. Molecule `CS(=O)(=O)c1ccc(-c2cnc3c(Nc4ccc(C(F)(F)F)cn4)ccnc3n2)c(C(F)(F)F)c1` [compound 41, 3-[4-(methylsulfonyl)-2-(trifluoromethyl)phenyl]-N-[5-(trifluoromethyl)pyridin-2-yl]pyrido[2,3-b]pyrazin-8-amine] has an IC50 of under 1000 nM. In the case of `CCOc1nc(Nc2ccnc3nc(-c4ccc(C#N)cc4C(F)(F)F)cnc23)ccc1C(F)(F)F` [compound 42, 4-(8-{[6-ethoxy-5-(trifluoromethyl)pyridin-2-yl]amino}pyrido[2,3-b]pyrazin-3-yl)-3-(trifluoromethyl)benzonitrile], the IC50 is reported as under 1000 nM. With `CCOc1nc(Nc2ccnc3nc(-c4ccc(C(N)=O)cc4C(F)(F)F)cnc23)ccc1C(F)(F)F` [compound 43, 4-(8-{[6-ethoxy-5-(trifluoromethyl)pyridin-2-yl]amino}pyrido[2,3-b]pyrazin-3-yl)-3-(trifluoromethyl)benzamide] the IC50 was under 1000 nM. Molecule `CCOc1nc(Nc2ccnc3nc(-c4ccc(C(=O)O)cc4C(F)(F)F)cnc23)ccc1C(F)(F)F` [compound 44, 4-(8-{[6-ethoxy-5-(trifluoromethyl)pyridin-2-yl]amino}pyrido[2,3-b]pyrazin-3-yl)-3-(trifluoromethyl)benzoic acid] has an IC50 of under 1000 nM. `CCOc1nc(Nc2ccnc3nc(-c4ncc(C(N)=O)cc4C(F)(F)F)cnc23)ccc1C(F)(F)F` [compound 48, 6-(8-{[6-ethoxy-5-(trifluoromethyl)pyridin-2-yl]amino}pyrido[2,3-b]pyrazin-3-yl)-5-(trifluoromethyl)nicotinamide] was tested, and the IC50 was under 1000 nM. For `FC(F)(F)c1ccc(Nc2ccnc3nc(-c4nnc(NCCN5CCCCC5)cc4C(F)(F)F)cnc23)nc1` [compound 53, 3-{6-[(2-piperidin-1-ylethyl)amino]-4-(trifluoromethyl)pyridazin-3-yl}-N-[5-(trifluoromethyl)-pyridin-2-yl]pyrido[2,3-b]pyrazin-8-amine], the IC50 was under 1000 nM. With `CC(C)N(CCNc1cc(C(F)(F)F)c(-c2cnc3c(Nc4ccc(C(F)(F)F)cn4)ccnc3n2)nn1)C(C)C` [compound 66, N,N-diisopropyl-N′-[5-(trifluoromethyl)-6-(8-{[5-(trifluoromethyl)pyridin-2-yl]amino}pyrido[2,3-b]pyrazin-3-yl)pyridazin-3-yl]ethane-1,2-diamine] the IC50 was under 1000 nM. With `CCN(CC)CCCCNc1cc(C(F)(F)F)c(-c2cnc3c(Nc4ccc(C(F)(F)F)cn4)ccnc3n2)nn1` [compound 69, N,N-diethyl-N′-[5-(trifluoromethyl)-6-(8-{[5-(trifluoromethyl)pyridin-2-yl]amino}pyrido[2,3-b]pyrazin-3-yl)pyridazin-3-yl]butane-1,4-diamine] the IC50 was under 1000 nM.
